{"source": "patent US20210106567A1", "about": "“COMPOSITIONS AND METHODS FOR INHIBITING CARP-1 BINDING TO NEMO” (United States Government As Represented By The Department …, priority 2019, published 2021)", "key": {"[1]": {"tested_on": "parental and chemo-resistant human and murine TNBC cells and parental renal cancer cells", "test": "Cytokine ELISA of culture media, chemotherapy-induced secretion", "assay_type": "cell-based", "settings": "single agent"}, "[2]": {"tested_on": "4T1 TNBC tumors", "test": "4T1 TNBC syngeneic tumor efficacy study in Balb/c mice", "assay_type": "in vivo, mouse", "settings": "ELISA of sera", "description": "Establishment of TNBC cell-derived xenografts in Syngeneic mice: Generation of 4T1 TNBC cell-derived sub-cutaneous xenografts in Balb/c mice were performed (Cheriyan et al. (2016) Oncotarget 7, 73370-73388; and Cheriyan et al. (2017) Oncotarget 8, 104928-104945). BALB/cAnNCr, 6-8-weeks old, female mice were purchased from Charles River Laboratories (Horsham, Pa.). Following suitable acclimation of animals, 1×10^6 4T1 TNBC cells were re-suspended in 200 μl of sterile saline, and implanted in the flanks using a 27-gauge needle. Tumors were allowed to grow to 500-1000 mg (˜10 days), and the aseptically harvested, minced into 3-4 mm^3 (30 mg) fragments and transplanted SC into naïve recipient mice using a standard 12 gauge trocar to serially maintain the tumor in vivo. For efficacy studies, tumors serially maintained in vivo were aseptically harvested and minced into 3-4 mm^3 (30 mg) fragments, then bilaterally transplanted subcutaneously along the flanks using a standard 12 gauge trocar. […] For the efficacy studies, SNI-1 was formulated in 8% DMSO (v/v) and 8% Cremophor (v/v) in cell grade water, pH4 as diluent.\nClinical grade ADR stock (2 mg/mL) was diluted to the appropriate concentration with cell grade water; pH4 and clinical grade CIS (1 mg/ml) diluted with USP 0.9% saline; pH6). Mice were monitored daily for changes in condition and body weight. Tumors were measured three times weekly by caliper and tumor volume (mg) was calculated using the following formula: (A×B2)/2 where A and B are the tumor length and width (in mm), respectively. […] Efficacy was also assessed quantitatively using tumor growth delay (T−C) defined as the difference between the median time (in days) required for the treatment group tumors (T) to reach 1000 mg and the median time (days) for the control group tumors to reach the same volume. Post last treatment, tumor tissue and samples from various organs (spleen, liver, kidney, heart, bone, and lungs) were collected. Additionally, the whole blood samples were obtained from a representative tumor-bearing mouse from each group via terminal cardiac puncture. Immuno-histochemical analyses of the tumor and tissue samples were performed for expression of activated RelA (serine 536 phosphorylated p65), total RelA, cleaved caspase-3, and CARP-1 proteins. The levels of pro-inflammatory cytokines in the sera were analyzed by sandwich ELISA assays following methods detailed herein (Cheriyan et al. (2016) Oncotarget 7, 73370-73388; and Cheriyan et al. (2017) Oncotarget 8, 104928-104945)."}, "[3]": {"tested_on": "cleaved RIPK1", "test": "Western blot for RIPK1 cleavage", "assay_type": "cell-based", "source_text": "(§1) The cells were lysed to prepare protein extracts."}, "[4]": {"tested_on": "mammospheres derived from human TNBC PDX tumors", "test": "Three-dimensional mammosphere assay (MTT)", "assay_type": "cell-based", "settings": "Homo sapiens; 5 μM for 48 h", "quoted_text": "Three-dimensional Mammosphere Assays: The PDX tumor cells were dissociated from the tumor fragments, and cultured for 2-dimensional and mammosphere studies in vitro (Cheriyan et al. (2016) Oncotarget 7, 73370-73388). Briefly, the cells were washed twice in 1×PBS, trypsinized, and pelleted at 200×g at room temperature. Cells were then re-suspended in 5 ml of mammosphere media (DMEM/F12 containing 2 mM L-glutamine, 100 U/ml penicillin, 100 U/ml streptomycin, 1×B27 supplement, 20 ng/ml recombinant human epidermal growth factor (EGF; Sigma), 10 ng/ml recombinant human basic fibroblast growth factor (bFGF; R&D Systems). Approximately 5000 viable cells per ml was then seeded in an ultra-low adherent 60 mm plate and incubated at 37° C. and 5% CO2 for two weeks without disturbing the plates. After the mammospheres formed, fresh media with or without Adriamycin (5 μM), SNI-1 (2.5 or 5.0 μM), or a combination of these agents was added and the cells incubated for additional 48 h at 37° C. and 5% CO2. The mammospheres in the untreated and treated plates were photographed, and the cells were then dissociated to determine their viabilities by the MTT assay (Cheriyan et al. (2016) Oncotarget 7, 73370-73388)."}, "[5]": {"tested_on": "MDR1", "test": "Levels of drug efflux pump MDR1", "assay_type": "cell-based, human", "settings": "MDA-MB-468 cells", "source_text": "Of note is that SNI-1 in combination with Adriamycin provoked a greater inhibition of tumor growth when compared with the tumor growth inhibition noted in animals treated with either agent alone. […] Since TNBCs and many other cancers are often known to express drug efflux pumps that contribute to lower efficacy of drugs in clinic and development of drug-resistant tumors, it is likely that the presence/expression of these drug efflux pumps function in part to interfere with a robust anti-tumor response to a combination of SNI-1 and Adriamycin."}, "[6]": {"tested_on": "p65/RelA activation and phosphorylation of NEMO", "test": "Western blot for canonical NF-κB activation", "assay_type": "cell-based", "settings": "single agent, Western blot", "source_text": "as §1"}, "[7]": {"tested_on": "MDA-MB-231 TNBC cells", "settings": "Wen et al. (2018); read-out: IC50, growth inhibition; cited from earlier work"}, "[8]": {"tested_on": "MDA-MB-468 TNBC cells", "test": "MTT cell viability, SNI-1 analogs", "assay_type": "cell-based, human", "settings": "24 h", "description": "FIGS. 22A-B show SNI-1 analogs enhance Adriamycin inhibition of TNBC cell growth. FIGS. 22A-B show cells treated with indicated dose of noted agent for 24 h, and their viabilities determined by MTT assay. Columns represent means of three independent experiments; bars, SE.\nMDA-MB-468 TNBC cells were next treated with each of the analog in vitro as a single agent or in combination with Adriamycin in vitro."}, "[9]": {"target": "T1, Flag-CARP-1 (546-580) binding with Biotin-NEMO (221-261) (Homo sapiens, UniProt Q8IX12)", "T1 construct": "Flag-tagged CARP-1 (546-580); purchased Peptides America, Fairfax, Va; host or cells: chemical synthesis", "T1 sequence (Q8IX12 546-580 limits assumed)": "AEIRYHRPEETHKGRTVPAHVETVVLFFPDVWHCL", "test": "AlphaLISA assay of CARP-1/NEMO peptide binding (HTS format)", "settings": "read-out: IC50, inhibition of binding of CARP-1 (546-580) with NEMO (221-261) peptide", "source_text": "The predicted kinetics of interaction of CARP-1 (551-600; SEQ ID NO: 5) and NEMO (221-261; SEQ ID NO: 2) epitopes was further validated by utilizing respective, chemically synthesized peptides to determine their in-solution binding by SPR technology (Sekhar et al. (2019) Cancers (Basel) 11). […] On the collective basis of the data in FIG. 1, and biophysical and SPR data above, in vitro binding assays were developed utilizing chemically synthesized CARP-1 and NEMO peptides. In the first instance, CARP-1 (551-580; SEQ ID NO: 6) and NEMO (221-261; SEQ ID NO: 2) peptides were used to carry out buffer optimization and DMSO tolerance of the assay. […] Presence of 0.01% tween minimizes non-specific binding and generates higher reproducibility as noted by smaller error bars in FIG. 15A. […]\nThe AlphaLISA assay for high throughput screening: For screening of a library of chemical compounds, an […] assay was developed and optimized for use in 384-well format (SAMDI Tech, Chicago, Ill.). […] The assay signal (Fluorescence) was measured at 680 nm excitation and 615 nm emission wavelengths to determine assay robustness and DMSO tolerance. […] The plates were read on a Pherastar FS plate reader. […] Those wells were further analyzed to investigate the 8 compounds individually in duplicate."}, "[10]": {"target": "T2, NEMO (221-260) peptide (Homo sapiens, UniProt Q9Y6K9)", "T2 construct": "host or cells: chemical synthesis", "T2 sequence (Q9Y6K9 222-261, one chain of several)": "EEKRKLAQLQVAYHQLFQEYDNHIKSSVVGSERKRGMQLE", "test": "Surface Plasmon Resonance kinetics of CARP-1 peptide binding with NEMO peptide", "settings": "SPR", "description": "Next, kinetics of CARP-1 binding with NEMO were determined by Surface Plasmon Resonance (SPR) Technology (Profacgen, Shirley, N.Y.). Briefly, CARP-1 (551-580) peptide (Amino terminal-[…]-Carboxyl terminal; SEQ ID NO: 6) was dissolved in water, and various concentrations of CARP-1 Peptide were manually printed onto the bare gold-coated (thickness 47 nm) PlexArray Nanocapture Sensor Chip (Plexera Bioscience, Seattle, Wash., US) at 40% humidity. Each concentration was printed in replicate, and each spot contained 0.2 μL of sample solution. The chip was incubated in 80% humidity at 4° C. for overnight, and rinsed with 10×PBST for 10 min, 1×PBST for 10 min, and deionized water twice for 10 min. The chip was then blocked with 5% (w/v) non-fat milk in water overnight, and washed with 10×PBST for 10 min, 1×PBST for 10 min, and deionized water twice for 10 min before being dried under a stream of nitrogen prior to use. The binding reactions with NEMO (221-260; SEQ ID NO: 7) peptide (Amino terminal-[…]-Carboxyl terminal; SEQ ID NO: 7) were performed in PBST buffer (0.01M phosphate buffered saline (0.138 M NaCl; 0.0027 M KCl), 0.05% Tween-20, pH 7.4). SPRi measurements were performed with PlexAray HT (Plexera Bioscience, Seattle, Wash., US). […] The signal changes after binding and washing (in AU) were recorded as the assay value. Selected protein-grafted regions in the SPR images were analyzed, and the average reflectivity variations of the chosen areas were plotted as a function of time. Real-time binding signals were recorded and analyzed by Data Analysis Module (DAM, Plexera Bioscience, Seattle, Wash., US). […]\nAssociation and dissociation rate constants were calculated by numerical integration and global fitting to a 1:1 interaction model and the equation: dRU(t)/dt=kaC(R^max−RU(t))−kdRU(t), where RU(t) is the response at time t, Rmax is the maximum response, C is the concentration of analyte in solution, ka is the association rate constant, kd is the dissociation rate constant, and RU (0)=0."}}, "note": "Ends that are not written are not given here.", "data": [{"molecule": "O=c1[nH]cc(F)c(=O)[nH]1", "note": "[5-FU]", "values": [{"measurement": "levels of TNFα, IL-8, and IL-1β in the media", "setting": "[1]", "result": "robust increase"}]}, {"molecule": "COc1cccc2c1C(=O)c1c(O)c3c(c(O)c1C2=O)C[C@@](O)(C(=O)CO)C[C@@H]3O[C@H]1C[C@H](N)[C@H](O)[C@H](C)O1", "note": "[Adriamycin]", "values": [{"measurement": "serum levels of TNFα and IL-1β", "setting": "[2]", "result": "robustly stimulated"}, {"measurement": "expression of cleaved RIPK1", "setting": "[3]", "result": "induced expression of cleaved RIPK1"}, {"measurement": "inhibition at 5 µM", "setting": "[4]", "result": "~30", "unit": "%"}, {"measurement": "levels of TNFα, IL-8, and IL-1β in the media", "setting": "[1]", "result": "robust increase"}, {"measurement": "levels of drug efflux pump MDR1", "setting": "[5]", "result": "moderate increase"}, {"measurement": "p65/RelA activation and phosphorylation of NEMO", "setting": "[6]", "result": "robust increase"}, {"measurement": "IC50", "setting": "[7]", "result": "~3000", "unit": "nM"}]}, {"molecule": "Cc1ccc(-n2cnnc2SCC(=O)c2ccc(O)c(O)c2)cc1", "note": "[GL-208]", "values": [{"measurement": "loss of cell viability in combination with Adriamycin versus Adriamycin alone", "setting": "[8]", "result": "minimal reduction in cell viabilities"}]}, {"molecule": "Cc1ccc(-n2cnnc2[S+]([O-])CC(=O)c2ccc(O)c(O)c2)cc1", "note": "(centres unmarked) [GL-209]", "values": [{"measurement": "loss of cell viability in combination with Adriamycin versus Adriamycin alone", "setting": "[8]", "result": "loss of cell viabilities that were greater"}]}, {"molecule": "Cc1ccc(-n2cnnc2S(=O)(=O)CC(=O)c2ccc(O)c(O)c2)cc1", "note": "[GL-210]", "values": [{"measurement": "loss of cell viability in combination with Adriamycin versus Adriamycin alone", "setting": "[8]", "result": "minimal reduction in cell viabilities"}]}, {"molecule": "Cc1ccc(-n2ccnc2SCC(=O)c2ccc(O)c(O)c2)cc1", "note": "[GL-211]", "values": [{"measurement": "loss of cell viability in combination with Adriamycin versus Adriamycin alone", "setting": "[8]", "result": "minimal reduction in cell viabilities"}]}, {"molecule": "Cc1ccc(-n2ccnc2[S+]([O-])CC(=O)c2ccc(O)c(O)c2)cc1", "note": "(centres unmarked) [GL-212]", "values": [{"measurement": "loss of cell viability in combination with Adriamycin versus Adriamycin alone", "setting": "[8]", "result": "moderate reduction in cell viabilities"}]}, {"molecule": "Cc1ccc(-n2ccnc2S(=O)(=O)CC(=O)c2ccc(O)c(O)c2)cc1", "note": "[GL-213]", "values": [{"measurement": "loss of cell viability in combination with Adriamycin versus Adriamycin alone", "setting": "[8]", "result": "loss of cell viabilities that were greater"}]}, {"molecule": "O=C(CSc1nc2ccccc2s1)c1ccc(O)c(O)c1", "note": "[GL-215]", "values": [{"measurement": "loss of cell viability in combination with Adriamycin versus Adriamycin alone", "setting": "[8]", "result": "moderate reduction in cell viabilities"}]}, {"molecule": "O=C(CSc1nc(-c2ccccc2)cs1)c1ccc(O)c(O)c1", "note": "[GL-216]", "values": [{"measurement": "loss of cell viability in combination with Adriamycin versus Adriamycin alone", "setting": "[8]", "result": "loss of cell viabilities that were greater"}]}, {"molecule": "COc1ccc(S(=O)(=O)Nc2ccccc2C(=O)NCCc2ccccc2)cc1", "note": "[SNI-2, 2-{((4-methoxyphenyl)sulfonyl)amino}-N-(2-phenylethyl)benzamide]", "values": [{"measurement": "IC50", "setting": "[9]", "result": "~25", "unit": "µM"}]}, {"molecule": "HRPEETHKGRTVPAHVETVVLFFPDVWHCL [CARP-1 (551-580)]", "values": [{"measurement": "Kd", "setting": "[10]; chemically synthesized peptides, read-out: equilibrium dissociation constant (KD Value)", "result": 102, "unit": "nM"}, {"measurement": "kon", "setting": "[10]; read-out: Ka (association rate constant)", "result": 2070, "unit": "M⁻¹ s⁻¹"}, {"measurement": "koff", "setting": "[10]; read-out: Kd (dissociation rate constant)", "result": 0.000212, "unit": "s⁻¹"}]}]}
